Among the data in a melting point compilation (Tetko et al.; mined from patent text by program, amines drawn as free bases though some values may be those of a salt) are melting point values, retold here.

For the molecule `O=C(CCCCCCCCC(=O)OC1CC(c2ccccc2)N(O)C(c2ccccc2)C1)OC1CC(c2ccccc2)N(O)C(c2ccccc2)C1` (centres undefined), the melting point lay in the range of 138 to 158 °C.
Molecule `CC(C)c1nc(CC#N)n(C)c1Sc1cc(Cl)cc(Cl)c1` showed a melting point of 103 to 105 °C.
Consider `Cc1cc(CNC(=O)c2cc(-c3ccc(-c4ccccc4)cc3)nn2C)ccc1OC(C)(C)C(=O)O`, for which the melting point is 90 to 95 °C.
To `COc1cc(NC(C)=O)c2c(c1)OC(C)C2` (centres undefined) belongs 104 °C.
Turning to `O=C(O)CCc1oc(Cl)nc1-c1ccc(Cl)cc1`, the melting point was 169 to 170 °C.
On to `CCCCCCCCCCCCCCCCCNC(=O)OCCSCCOC(=O)NCc1ccccn1`, for which the melting point was in the range of 73 to 74 °C.
Molecule `O=C(O)CCc1cc2cc(Cl)ccc2n1S(=O)(=O)c1ccc(Oc2ccccc2)cc1` yielded a melting point of 70 to 75 °C.
`CCc1nc2cc(Nc3nccc(-c4ccc(N5CCNCC5)nc4)n3)ccc2o1` showed a melting point of 156 to 159 °C.
The molecule `CCNc1nc2ccc(CCc3cn4c(n3)CC(C)CC4)cc2o1` (centres undefined) displayed a melting point of 159 to 161 °C.
Turning to `C=CCc1c(O)c(Cl)cc(F)c1N1C(=O)C2=C(CCCC2)C1=O`, the melting point was in the range of 109 to 111 °C.
To `Cc1cc(=O)c2c(OCCOc3ccccc3)cccc2o1` belongs 142 to 144 °C; to `CCOC(=O)c1cn(CC)c2cc(-c3csc(CN(CCOC(C)=O)C(C)=O)n3)c(F)cc2c1=O`, 148 to 152 °C.
`COc1ccc(N2CC(=O)NC(=O)N2)cc1C`: the melting point is 69 to 71 °C.
Turning to `Cc1c(N2C[C@@H](NC(=O)OC(C)(C)C)C3(CC3)C2)c(F)c(N)c2c(=O)c(C(=O)O)cn(C3CC3)c12`, the melting point was 218 to 219 °C.
Turning to `N#CCCNC(=O)c1cccc(-c2ccc(F)c3cc(Cc4cccc(C(F)(F)F)c4)oc23)c1`, the melting point fell in the range of 158 to 159 °C.
On to `COc1cc(OC)nc(Cc2ccccc2NS(=O)(=O)C(F)(F)F)n1`, for which the melting point lay in the range of 99 to 100 °C.
For the molecule `CCSc1cccc(OC(F)(F)F)c1S(N)(=O)=O`, the melting point was 146 °C.
In the case of `COc1cc(OCc2ccccn2)c(C=O)cc1-c1cccs1` it was 93 to 94 °C.
`CC(C(O)c1ccc(O[Si](C(C)C)(C(C)C)C(C)C)c(F)c1)N1CCC(O)(c2ccc(F)cc2)CC1` (centres undefined) displayed a melting point of 159 to 160 °C.
As for `COCc1nc2c(NCc3c(C)cccc3C)cc(C(=O)NCCO)cc2n1C`, the melting point was 186 to 187 °C.
The molecule `O=C(NOC(=O)c1ccccc1)OCC1c2ccccc2-c2ccccc21` came in with a melting point of 150 °C.
For the molecule `C[C@]1(COc2ccc3nc(N4CCC(=Cc5ccc(OC(F)(F)F)cc5)CC4)ccc3c2)Cn2cc([N+](=O)[O-])nc2O1`, the melting point fell in the range of 194 to 196 °C.
In the case of `CC(=O)Nc1ccc(S(=O)(=O)NCCCn2ccnc2)cc1` it was 178 to 180 °C; in that of `Fc1cccc(Nc2cc(-c3ccnc(NC4CCOCC4)n3)ccn2)c1`, 190 to 192 °C; in that of `Cc1noc(-c2ccccc2)c1CCC(N)=O`, 149 to 151 °C.
In turn, `Cn1ncc(NCCCN2CCC(c3noc4cc(F)ccc34)CC2)cc1=O` yielded a melting point of 163 to 165 °C.
`C=Cc1cnc(C)c(OC(=O)OCC)c1CSC(=O)OCC` gave a melting point of 142 to 145 °C.
In the case of `CN(C)C1=C(c2cccc(C(F)(F)F)c2)C(=O)OC1` it was 110 °C; in that of `CC(=O)Oc1ccc(C(=O)O)c(C)c1`, 136 to 138 °C.
To `Cc1cccc2sc(COc3ccc(F)c(C(N)=O)c3F)nc12` belongs 201 to 202 °C; to `COc1cc2c(cc1Br)-c1cc3c(n1CC2)C(=O)N(C(C)(C)C)CCC3`, 163 to 165 °C.
Molecule `Cc1ccc2nc(-c3ccc([N+](=O)[O-])cc3)cn2c1` returned a melting point of 237 to 239 °C.
Consider `N#CCCCN1CCC(Nc2nc3ccccc3n2Cc2ccc(F)cc2)CC1`, for which the melting point worked out at 130 °C.
Take `CCOc1nn(-c2ccc(C(F)(F)F)cn2)cc1CCOc1cccc(OC(C)(C)C(=O)O)c1`: the melting point fell in the range of 89 to 90 °C.
